Values of other authors as cited in patent US9233169B2, “Oligomer-bis-chromonyl compound conjugates” (NEKTAR THERAPEUTICS, priority 2008, dated 2016).

Tested on: mast cell degranulation
Settings: monkey gingiva; Nuki et al. (1975)

O=C([O-])c1cc(=O)c2c(OCC(O)COc3cccc4oc(C(=O)[O-])cc(=O)c34)cccc2o1.[Na+].[Na+] [Cromonlyn sodium, disodium 5,5′-((2-hydroxytrimethylene)dioxy)bis(4-oxo-4H-1 benzopyran-2-carboxylate)]
inhibition of mast cell degranulation: inhibit mast cell degranulation
